Data on 16 substances can be found in US10130693B2, “Peptides, combination of peptides and scaffolds for use in immunotherapeutic treatment of various cancers” (Immatics Biotechnologies GmbH, priority 2015, dated 2018).

For one assay, the target named is HLA-A*02:01 (Homo sapiens, UniProt P04439, D140Y/D185E/D98H/E176V/E277Q/G131W/G231S/I119V/I121R/I166T/I218V/L300P/L318F/N151K/N90K/P208A/P217A/Q86G/Q94H/R138H/R169H/T345S). Put plainly: MHC binding assay, UV-ligand exchange with beta2m ELISA (exchange yield), HLA-A*02. The conditions noted are these: binding to HLA-A*02 ranged by peptide exchange yield. A digest of the protocol:
(§1)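 Peptide–MHC complexes formed by UV-ligand exchange: a UV-cleavable peptide is replaced by the test peptide, and only binders keep the complex stable. Exchange yield read by streptavidin-capture ELISA on reactions diluted 100-fold, detected with HRP anti-β2m (2 ug/ml, 1 h, 37° C) and TMB at 450 nm.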
(In general: ELISA stands for enzyme-linked immunosorbent assay.)

In assay [1] the test system is CD8+ T cells. Put plainly: In vitro immunogenicity: T-cell priming with aAPCs loaded with HLA-A*02 peptide/MHC and anti-CD28, multimer staining. In kind it is cell-based, human. As to conditions: HLA-A*02 peptides. An excerpt:
In order to obtain information regarding the immunogenicity of the TUMAPs of the present invention, the inventors performed investigations using an in vitro T-cell priming assay based on repeated stimulations of CD8+ T cells with artificial antigen presenting cells (aAPCs) loaded with peptide/MHC complexes and anti-CD28 antibody.
In order to perform in vitro stimulations by artificial antigen presenting cells loaded with peptide-MHC complex (pMHC) and anti-CD28 antibody, the inventors first isolated CD8+ T cells from fresh HLA-A*02 leukapheresis products via positive selection using CD8 microbeads (Miltenyi Biotec, Bergisch-Gladbach, Germany) of healthy donors obtained from the University clinics Mannheim, Germany, after informed consent.
PBMCs and isolated CD8+ lymphocytes were incubated in T-cell medium (TCM) until use consisting of RPMI-Glutamax (Invitrogen, Karlsruhe, Germany) supplemented with 10% heat inactivated human AB serum (PAN-Biotech, Aidenbach, Germany), 100 U/ml Penicillin/100 μg/ml Streptomycin (Cambrex, Cologne, Germany), 1 mM sodium pyruvate (CC Pro, Oberdorla, Germany), 20 μg/ml Gentamycin (Cambrex). 2.5 ng/ml IL-7 (PromoCell, Heidelberg, Germany) and 10 U/ml IL-2 (Novartis Pharma, Nürnberg, Germany) were also added to the TCM at this step.
(§2) Generation of pMHC/anti-CD28 coated beads, T-cell stimulations and readout was performed in a highly defined in vitro system using four different pMHC molecules per stimulation condition and 8 different pMHC molecules per readout condition.
(§3) The purified co-stimulatory mouse IgG2a anti human CD28 Ab 9.3 (Jung et al., 1987) was chemically biotinylated using Sulfo-N-hydroxysuccinimidobiotin as recommended by the manufacturer (Perbio, Bonn, Germany). Beads used were 5.6 μm diameter streptavidin coated polystyrene particles (Bangs Laboratories, Illinois, USA).
pMHC used for positive and negative control stimulations were A*0201/MLA-001 (peptide […] (SEQ ID NO. 418) from modified Melan-A/MART-1) and A*0201/DDX5-001 ([…] from DDX5, SEQ ID NO. 419), respectively.
(§4) 800.000 beads/200 μl were coated in 96-well plates in the presence of 4×12.5 ng different biotin-pMHC, washed and 600 ng biotin anti-CD28 were added subsequently in a volume of 200 μl. Stimulations were initiated in 96-well plates by co-incubating 1×10^6 CD8+ T cells with 2×10^5 washed coated beads in 200 μl TCM supplemented with 5 ng/ml IL-12 (PromoCell) for 3 days at 37° C. Half of the medium was then exchanged by fresh TCM supplemented with 80 U/ml IL-2 and incubating was continued for 4 days at 37° C. This stimulation cycle was performed for a total of three times. For the pMHC multimer readout using 8 different pMHC molecules per condition, a two-dimensional combinatorial coding approach was used as previously described (Andersen et al., 2012) with minor modifications encompassing coupling to 5 different fluorochromes. Finally, multimeric analyses were performed by staining the cells with Live/dead near IR dye (Invitrogen, Karlsruhe, Germany), CD8-FITC antibody clone SK1 (BD, Heidelberg, Germany) and fluorescent pMHC multimers. For analysis, a BD LSRII SORP cytometer equipped with appropriate lasers and filters was used. Peptide specific cells were calculated as percentage of total CD8+ cells. Evaluation of multimeric analysis was done using the FlowJo software (Tree Star, Oregon, USA). In vitro priming of specific multimer+CD8+ lymphocytes was detected by comparing to negative control stimulations.

Assay [2] deals with CD8+ T cells. Put plainly: In vitro immunogenicity: T-cell priming with aAPCs loaded with HLA-A*24 peptide/MHC and anti-CD28, multimer staining. In kind it is cell-based, human. As to conditions: HLA-A*24 peptides. Here is the method:
CD8+ T cells were primed using artificial APCs coated with anti-CD28 mAb and HLA-A*24 in complex with SEQ ID NO: 99 peptide (FIG. 5A, left panel), SEQ ID NO: 119 peptide (FIG. 5B, left panel), SEQ ID NO: 142 peptide (FIG. 5C, left panel) and SEQ ID NO: 174 peptide FIG. 5 (D, left panel), respectively. After three cycles of stimulation, the detection of peptide-reactive cells was performed by 2D multimer staining with A*24/SEQ ID NO: 99 (FIG. 5A), A*24/SEQ ID NO: 119 (FIG. 5B), A*24/SEQ ID NO: 142 (FIG. 5C) or A*24/SEQ ID NO: 174 (FIG. 5D). Right panels (FIGS. 5A,5B,5C and 5D) show control staining of cells stimulated with irrelevant A*24/peptide complexes. Viable singlet cells were gated for CD8+ lymphocytes. Boolean gates helped excluding false-positive events detected with multimers specific for different peptides. Frequencies of specific multimer+ cells among CD8+ lymphocytes are indicated.
as §2, §3, §4

The test system of a further assay is HLA-A*24. Put plainly: MHC binding assay, UV-ligand exchange with beta2m ELISA (exchange yield), HLA-A*24. Further details: species or system human. As to conditions: binding to HLA-A*24, UV-ligand exchange. An outline of the steps: as §1

With “2 (ALYGKLLKL; listed as Homo sapiens) [compound 2]”, the “Peptide exchange (MHC class I binding score)” value in the assay with HLA-A*02:01 is listed as “+++ (50%-75% = +++)”. The “in vitro immunogenicity, Wells positive [%]” value (from here on “in vitro immunogenicity … [%]”) with CD8+ T cells [1] is recorded as “++++ (>=70% = ++++)”.

Consider “7 (AAAAKVPEV; listed as Homo sapiens) [compound 7]”, for which the “Peptide exchange (MHC class I binding score)” value with HLA-A*02:01 is listed as “+++ (50%-75% = +++)”. In the assay with CD8+ T cells [1], the “in vitro immunogenicity … [%]” value was “+ (<20% = +)”.

As to “8 (KLGPFLLNA; listed as Homo sapiens) [compound 8]”, the “Peptide exchange (MHC class I binding score)” value with HLA-A*02:01 is “+++ (50%-75% = +++)”. The “in vitro immunogenicity … [%]” value with CD8+ T cells [1] is recorded as “+++ (50%-69% = +++)”.

Take “9 (FLGDYVENL; listed as Homo sapiens) [compound 9]”: the “Peptide exchange (MHC class I binding score)” value with HLA-A*02:01 is “++ (20%-49% = ++)”. For the same substance, in the assay with CD8+ T cells [1], the “in vitro immunogenicity … [%]” value is listed as “+ (<20% = +)”.

Take “17 (ILHEHHIFL; listed as Homo sapiens) [compound 17]”: the “Peptide exchange (MHC class I binding score)” value in the assay with HLA-A*02:01 was “+++ (50%-75% = +++)”. For the same substance, the “in vitro immunogenicity … [%]” value in the assay with CD8+ T cells [1] is given as “+ (<20% = +)”.

Regarding “43 (LLWAGPVTA; listed as Homo sapiens) [compound 43]”, the “Peptide exchange (MHC class I binding score)” value in the assay with HLA-A*02:01 is “+++ (50%-75% = +++)”. The “in vitro immunogenicity … [%]” value with CD8+ T cells [1] is on record as “++++ (>=70% = ++++)”.

“322 (ALVSGGVAQA; listed as Homo sapiens) [compound 322]”: in the assay with HLA-A*02:01, the “Peptide exchange (MHC class I binding score)” value is listed as “+++ (50%-75% = +++)”. Also, the “in vitro immunogenicity … [%]” value in the assay with CD8+ T cells [1] was “+ (<20% = +)”.

As to “331 (AIWKELISL; listed as Homo sapiens) [compound 331]”, the “Peptide exchange (MHC class I binding score)” value in the assay with HLA-A*02:01 is reported as “+++ (50%-75% = +++)”. In the assay on CD8+ T cells [1], the “in vitro immunogenicity … [%]” value is listed as “++ (20%-49% = ++)”.

For “359 (NYGVLHVTF; listed as Homo sapiens) [compound 359]”, in the assay on CD8+ T cells [2], the “in vitro immunogenicity … [%]” value is reported as “+ (<20% = +)”. The “Peptide exchange (MHC class I binding score, peptide exchange yield)” value in the assay with HLA-A*24 is recorded as “++++ (>=75% = ++++)”.

“360 (VFSPDGHLF; listed as Homo sapiens) [compound 360]”: the “in vitro immunogenicity … [%]” value in the assay on CD8+ T cells [2] is on record as “++ (20%-49% = ++)”. The “Peptide exchange (MHC class I binding score, peptide exchange yield)” value in the assay with HLA-A*24 was “+++ (50%-75% = +++)”.

Consider “363 (SYAELGTTI; listed as Homo sapiens) [compound 363]”, for which the “in vitro immunogenicity … [%]” value in the assay with CD8+ T cells [2] is “+ (<20% = +)”. Also, in the assay with HLA-A*24, the “Peptide exchange (MHC class I binding score, peptide exchange yield)” value was “++ (20%-49% = ++)”.

Regarding “365 (VFIDHPVHL; listed as Homo sapiens) [compound 365]”, in the assay on CD8+ T cells [2], the “in vitro immunogenicity … [%]” value is listed as “+ (<20% = +)”. For the same substance, the “Peptide exchange (MHC class I binding score, peptide exchange yield)” value in the assay on HLA-A*24 is given as “++++ (>=75% = ++++)”.

With “366 (QYLELAHSL; listed as Homo sapiens) [compound 366]”, the “in vitro immunogenicity … [%]” value in the assay on CD8+ T cells [2] is listed as “++ (20%-49% = ++)”. The “Peptide exchange (MHC class I binding score, peptide exchange yield)” value in the assay on HLA-A*24 is reported as “+++ (50%-75% = +++)”.

Consider “367 (LYQDHMQYI; listed as Homo sapiens) [compound 367]”, for which the “in vitro immunogenicity … [%]” value in the assay on CD8+ T cells [2] is given as “++ (20%-49% = ++)”. Moreover, in the assay with HLA-A*24, the “Peptide exchange (MHC class I binding score, peptide exchange yield)” value is listed as “++ (20%-49% = ++)”.

As to “371 (AYSHLRYVF; listed as Homo sapiens) [compound 371]”, in the assay on CD8+ T cells [2], the “in vitro immunogenicity … [%]” value is recorded as “++ (20%-49% = ++)”. In addition, the “Peptide exchange (MHC class I binding score, peptide exchange yield)” value in the assay with HLA-A*24 is on record as “++ (20%-49% = ++)”.

Regarding “380 (VYTGIDHHW; listed as Homo sapiens) [compound 380]”, the “in vitro immunogenicity … [%]” value with CD8+ T cells [2] is “+ (<20% = +)”. The “Peptide exchange (MHC class I binding score, peptide exchange yield)” value in the assay with HLA-A*24 is “++++ (>=75% = ++++)”.
